“Also recorded” adds a separate entry of the source. Like-named read-outs stand apart in the source and are kept apart here.
Tests used:
[1] = test system: patients with early dcSSc; details: Allanore et al. 2018, cited from earlier work
[2] = Single-dose PK under fasted conditions in healthy adult subjects; assay type: in vivo, human; details: for AUC(0-inf) / AUC(0-t) / Cmax / Tmax / half-life: human, plasma, oral
Method: (§1) The PK of Compound I and food effect were evaluated in an open-label study in healthy volunteers to inform the dose and dosing condition of the tablet formulations used in the clinical studies. Dose proportionality and food effect were evaluated using a 2-way, 2-period crossover design in two cohorts:150 mg and 300 mg single dose under fasting condition in Cohort 1 and 450 mg single dose under fasting and high-fat, high calorie meal condition in Cohort 2. Multiple-dose PK was evaluated using a 2-period, fixed sequence crossover design. Subjects received Compound I twice a day (BID) of 300 mg (Cohort 3) or 450 mg (Cohort 4) administered with low-fat meals in Period 1 and with high-fat meals in Period 2.
(§2) PK sample collections: For cohort 1 and 2, blood samples were collected at predose, 0.5, 1, 2, 3, 4, 6, 8, 12, 24, 36, 48, 72, 96 and 120 h post dose. For cohort 3 and 4, blood samples were collected at predose, 0.5, 1, 2, 4, 5, 12 hrs after the first dose on Day 1. After the last dose on Day 5, PK samples were taken at predose, 0.5, 1, 2, 4, 6, 12, 24, 36, 60, 84, 108 hr in Period 1 and predose, 0.5, 1, 2, 4, 6, 12 hours post last dose in Period 2.
(§3) Plasma concentrations of Compound I were determined using a validated high performance liquid chromatography-tandem mass spectrometry (HPLC MS/MS) method. The analytical range of Compound I were 250-50,000 ng/mL (high range) and […] (low range). Dose-proportionality of pharmacokinetic parameters were examined by analysis of variance (ANOVA) where the AUC0-last, AUC0-inf, and Cmax parameters were dose normalized. 90% confidence intervals (CIs) were derived by exponentiation of the CIs obtained for the difference between the treatment LSMs (Least square means). Dose proportionality was established if the 90% CI for the ratio of the geometric means for the dose-normalized parameters lay within the limits of (0.7, 1.43).

[3] = test system: patients with early dcSSc; experiment: 8-week double-blind, placebo-controlled study with 16-week open-label extension in dcSSc; assay type: in vivo, human
Text: The primary end point was safety during the double-blind phase of the trial. Exploratory end points included the identification of an LPA-induced gene signature in patients' skin.
Seventeen of 32 patients were randomly assigned to receive placebo and 15 to receive Compound I. Thirty patients participated in the open-label extension study. […] At week 8, the reduction in MRSS was numerically greater in the Compound I group than in the placebo group (mean±SD change −3.57±4.18 versus −2.76±4.85; treatment effect −1.2 [95% confidence interval −4.37, 2.02]).

[4] = Food effect on PK at 450 mg single dose in healthy adult subjects; assay type: in vivo, human; details: for AUC(0-inf) / AUC(0-t) / Cmax: human, plasma, oral; for AUC(0-inf): read-out: AUC0-inf, Geometric LSM; for AUC(0-t): read-out: AUC0-last, Geometric LSM; for Cmax: read-out: Cmax, Geometric LSM
Method: as §1, §2, §3
Food effect was evaluated using ANOVA on the ln-transformed PK parameters. The ANOVA model included sequence, treatment, and period as fixed effects and subject nested within sequence as a random effect. Geometric least square means, geometric mean ratio (High fat vs. fasted) and 90% confidence interval of PK parameters (AUC and Cmax) were calculated from the ANOVA model.

[5] = test system: leukocytes and total inflammatory cells in broncho-alveolar lavage; experiment: Broncho-alveolar lavage of presensitized mice treated with ovalbumin; assay type: in vivo
tight skin (Tsk-1) mice = experiment: Tight skin (Tsk-1) mice model of skin fibrosis; assay type: in vivo, mouse; details: 30 mg/kg/day
Text: (§4) Two models of skin fibrosis were used to evaluate the effect of Compound I in comparison with imatinib mesylate, used as a reference.

thrombosis [6] = experiment: Model of thrombosis in mouse; assay type: in vivo; details: one model in mouse
thrombosis [7] = experiment: Acute models of coagulation and arterial thrombosis (two models in rats); assay type: in vivo
Text: (§5) All these pathological events can be observed in SSc patients at different levels and further support the use of Compound I in these patients.

renal failure = experiment: Models of hypertension-induced or nephrotoxicity-induced renal failure; details: in vivo
Text: as §5

[8] = test system: bleomycin-induced skin fibrosis; experiment: Bleomycin-induced skin fibrosis model, therapeutic protocol; assay type: in vivo, mouse; details: 50 mg/kg/day
Text: as §4

[9] = Multiple-dose (BID) PK at steady state with meals in healthy adult subjects; assay type: in vivo, human; details: for t1/2 / half-life: median; for Ctrough / AUC / Cmax: steady state, mean (% CV); for AUC / Cmax / half-life: human, plasma, oral
Method: as §1, §2, §3

[10] = test system: cardiac hypertrophy, fibrosis and heart failure; experiment: Models of hypertension or diabetes-related cardiac hypertrophy, fibrosis and heart failure; details: in vivo
Text: as §5

[11] = biological target: lysophosphatidic acid receptor 1 (LPAR1) (Homo sapiens, UniProt Q92633); experiment: LPAR1 antagonism
[12] = 24-weeks of continuous treatment
[13] = Subjects switched from placebo to Compound I, 16-week open label extension
[14] = Fed (high-fat, high-calorie meal)
[15] = therapeutic protocol, mouse skin
[16] = 300 mg BID, High-fat reduced calorie meal
[17] = 450 mg BID, High-fat high calorie meal
[18] = 300 mg, 300 mg BID, High-fat reduced calorie meal
[19] = 300 mg, 300 mg BID, Low-fat meal
[20] = 450 mg, 450 mg BID, High-fat high calorie meal
[21] = 450 mg, 450 mg BID, Low-fat meal

lysophosphatidic acid receptor 1 (LPAR1), sequence (Q92633 whole entry): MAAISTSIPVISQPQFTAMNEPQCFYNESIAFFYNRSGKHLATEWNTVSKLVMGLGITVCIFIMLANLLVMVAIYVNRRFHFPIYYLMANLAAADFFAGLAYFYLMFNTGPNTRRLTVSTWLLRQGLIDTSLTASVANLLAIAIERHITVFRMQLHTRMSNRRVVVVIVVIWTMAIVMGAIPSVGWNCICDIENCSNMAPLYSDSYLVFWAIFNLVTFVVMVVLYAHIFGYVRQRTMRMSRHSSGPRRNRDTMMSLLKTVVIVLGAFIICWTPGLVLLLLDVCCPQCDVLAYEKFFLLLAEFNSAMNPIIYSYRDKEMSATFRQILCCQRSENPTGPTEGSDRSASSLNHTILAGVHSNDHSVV

- dose proportionality of Cmax and AUC ([2]; 150 to 450 mg, ANOVA): less than dose-proportional
- AUC(0-inf) ([2]; 150 mg single dose): 85.2 µg·h/mL
- AUC(0-t) ([2]; 150 mg single dose): 83.8 µg·h/mL
- Cmax ([2]; 150 mg single dose): 11100 ng/mL
- Tmax ([2]; 150 mg single dose): 3.5 h
- half-life ([2]; 150 mg single dose): 21.8 h
- AUC(0-inf) ([2]; 300 mg single dose): 120 µg·h/mL
- AUC(0-t) ([2]; 300 mg single dose): 118 µg·h/mL
- Cmax ([2]; 300 mg single dose): 14500 ng/mL
- Tmax ([2]; 300 mg single dose): 4 h
- half-life ([2]; 300 mg single dose): 22.4 h
- AUC(0-inf) ([2]; 450 mg single dose): 126 µg·h/mL
- AUC(0-t) ([2]; 450 mg single dose): 125 µg·h/mL
- Cmax ([2]; 450 mg single dose): 15200 ng/mL
- Tmax ([2]; 450 mg single dose): 3 h
- half-life ([2]; 450 mg single dose): 18.3 h
- Cmax, GMR fed vs fasted [4]: 190.85%
- AUC(0-inf) ([4]; Fasted): 117 µg·h/mL
- AUC(0-t) ([4]; Fasted): 116 µg·h/mL
- Cmax ([4]; Fasted): 14000 ng/mL
- AUC(0-inf) [4, 14]: 248 µg·h/mL
- AUC(0-t) [4, 14]: 246 µg·h/mL
- Cmax [4, 14]: 26700 ng/mL
- t1/2 [9, 16]: 24.6 h
- Ctrough [9, 16]: 8627 (17%) ng/mL
- Ctrough ([9]; 300 mg BID, Low-fat meal): 6570 (13%) ng/mL
- t1/2 [9, 17]: 27.7 h
- Ctrough [9, 17]: 11000 (23%) ng/mL
- Ctrough ([9]; 450 mg BID, Low-fat meal): 11000 (35%) ng/mL
- AUC [9, 18]: 166 µg·h/mL
- Cmax [9, 18]: 21700 ng/mL
- AUC [9, 19]: 129 µg·h/mL
- Cmax [9, 19]: 15900 ng/mL
- AUC [9, 20]: 204 µg·h/mL
- Cmax [9, 20]: 25800 ng/mL
- AUC [9, 21]: 163 µg·h/mL
- Cmax [9, 21]: 18400 ng/mL
- half-life ([9]; 300 mg BID, Low-fat meal): 24.6 h
- half-life ([9]; 450 mg BID, Low-fat meal): 27.7 h
- LPAR1 antagonist activity [11]: potent and selective antagonist
SMILES: COc1ccc(C(=O)NC2(C(=O)O)Cc3ccccc3C2)cc1OCCc1cccc(C)c1 [Compound I, 2-(4-methoxy-3-(3-methylphenethoxy)benzamido)-2,3-dihydro-1H-indene-2-carboxylic acid]
- most frequent treatment-emergent adverse events (TEAEs) ([1]; 8-week double-blind period): headache, diarrhea, nausea and fall
- tolerability ([1]; about 300 mg BID up to 24 weeks): well tolerated
- clinical outcome measures (mRSS, HAQ-DI, SHAQ components, disease severity VAS, pruritus VAS) ([1]; about 300 mg BID): improved outcome measures; also recorded: numerical improvement
- target engagement [1]: demonstrated target engagement
- Median Decrease in mRSS [3, 12]: −7.5
- Responder Rate [3, 12]: 78.6%
- Median Decrease in mRSS [3, 13]: −7.0
- Responder Rate [3, 13]: 69.2%
- most frequent adverse events ([3]; blinded phase): headache, diarrhea, nausea, and falling
- MRSS during the study ([3]; in vivo): improved during the study although the difference was not significant
- disease biomarkers (COMP and TSP1) ([3]; initial Compound I group, treatment up to 24 weeks): numerical improvement versus baseline
- LPA-related genes, biomarker analysis of skin biopsies ([3]; open label extension): reductions in LPA-related genes
- safety profile ([3]; open-label extension): acceptable
- tolerability ([3]; patients with dcSSc): well tolerated
- reduction of LPA-related genes in skin samples versus placebo group ([3]; week 8): greater reduction
- treatment effect on MRSS versus placebo ([3]; week 8): −1.2
- change in MRSS, mean±SD ([3]; week 8, double-blind phase): −3.57±4.18
- HAQ-DI (functional disability) ([3]; week 24): clinically significant improvement
- inflammation in model of lung injury ([5]; predominant Th2-type response): reduces inflammation
- accumulation of leukocytes and total inflammatory cells in broncho-alveolar lavage ([5]; presensitized mice treated with ovalbumin): significant inhibitory effect
- progression of skin fibrosis (tight skin (Tsk-1) mice): inhibit the progression of skin fibrosis at a similar level than imatinib
- antithrombotic activity (thrombosis [6]): demonstrated antithrombotic activity
- antithrombotic activity (thrombosis [7]): moderate but significant antithrombotic activity; also recorded: demonstrated antithrombotic activity
- kidney function (renal failure): improved kidney function
- effect on these markers versus imatinib reference [8]: comparable with the effects of imatinib
- collagen content [8, 15]: able to reverse
- dermal thickness [8, 15]: able to reverse
- myofibroblast differentiation [8, 15]: able to reverse
- arterial stiffness [10]: positive effect
- blood pressure [10]: mostly unchanged
- cardiac function and structure [10]: beneficial effect
- cardiac systolic and diastolic function [10]: improves

Source: patent US12691086B2, “Methods of treating systemic sclerosis and idiopathic pulmonary fibrosis” (HORIZON THERAPEUTICS IRELAND DAC, priority 2022, dated 2026)
